The text below walks through data of patent US11241421B2, “Combination therapies for treating cancer” (UNIVERSITY OF VIRGINIA PATENT FOUNDATION, priority 2016, dated 2022).

The test system of data set [1] is Cbfb^+/MYH11; Nras^+/G12D leukemic cells. Description: Leukemia transplantation studies in mice (inv(16) AML model). Format: in vivo. Particulars: for white blood cell count: peripheral blood, doxorubicin 2 mg/kg single dose, AI-10-49 200 mg/kg daily intraperitoneally for 10 days, FIG. 1; for Lin-Sca1-c-Kit+ cell population (number of cells): spleen, flow cytometry, same dosing, FIG. 4. The protocol: The experiments with animals were performed in accordance with a protocol reviewed and approved by the University of Massachusetts Institutional Animal Care and Use Committee. An efficient mouse model of inv(16)AML was used. (L. Xue, et al., 2014.) Leukemic cells carrying Cbfb^+/MYH11 and Nras^+/G12D oncogenic alleles were generated in CD45.2 C57BL/6 mice, as previously described (Illendula, et al., 2015.) Briefly, 2×10^3 Cbfb^+/MYH11; Nras^+/G12D leukemic cells were transplanted into each of 16 sub-lethally irradiated six to eight-week-old CD45.1 C57BL/6 female mice. Five days post-transplant, mice were placed in 4 groups with 4 mice in each group: DMSO (control, 50 μL), Dox, AI-10-49, and Dox+AI-10-49. Both Dox groups received a single dose of doxorubicin (2 mg/kg) 5 days post-transplant. Both AI-10-49 groups received a daily dose of AI-10-49 (200 mg/kg) in DMSO injected intraperitoneally for 10 days. After this 10-day period, all mice were sacrificed and analyzed for leukemia burden via several measures. Mice were kept under observation by more than one person to determine the median leukemia latency, and were euthanized once signs of disease were detected, including reduced motility and grooming activity, hunched back, pale paws (anemia), and hypothermia. At time of euthanasia, peripheral blood and spleen cells were extracted and analyzed as previously described (Y. H. Kuo, et al., 2006.). Leukemia burden was analyzed in peripheral blood by measuring the total white blood cell counts, the number of cells in the c-kit(+)-gated population, spleen weight and cell number, and spleen Lin-Sca1-c-kit+ population. For Kit+ and Lin-Sca-Kit+ results, flow cytometry was used to measure the effect.
For orientation: In flow cytometry, cells or beads pass a laser one at a time.

The conditions of data set [2]: compared with daunorubicin; cited from earlier work.
The conditions of data set [3]: compared with daunorubicin; cited from earlier work. The source holds these as a separate data set.
Data set [4] has as its system CBFβ-SMMHC fusion protein. Particulars: cited from earlier work.
In data set [5] the target is T1, CBFβ (Homo sapiens, UniProt Q13951).
T1 sequence (Q13951 1-182): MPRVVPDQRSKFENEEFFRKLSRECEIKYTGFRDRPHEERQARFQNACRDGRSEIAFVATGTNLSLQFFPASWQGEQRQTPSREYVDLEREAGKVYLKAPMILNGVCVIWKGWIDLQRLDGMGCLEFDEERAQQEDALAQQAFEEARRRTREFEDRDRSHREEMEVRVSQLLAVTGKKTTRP
The note with it: cited from earlier work.

Data set [6] concerns ME-1 cell line, a leukemia cell line with inv(16). Particulars: cited from earlier work.
For data set [7] the following is noted: compared with doxorubicin; cited from earlier work.
For data set [8] the following is noted: relative to the methoxy compound; cited from earlier work.

For `COc1cccc2c1C(=O)c1c(O)c3c(c(O)c1C2=O)C[C@@](O)(C(=O)CO)C[C@@H]3O[C@H]1C[C@H](N)[C@H](O)[C@H](C)O1` [Dox, doxorubicin], in data set [1], the “white blood cell count” value was “reduced” and the “Lin-Sca1-c-Kit+ cell population (number of cells)” value is on record as “no effect”.

On to `CC(=O)[C@]1(O)Cc2c(O)c3c(c(O)c2[C@@H](O[C@H]2C[C@H](N)[C@H](O)[C@H](C)O2)C1)C(=O)c1ccccc1C3=O` [Idarubicin], for which, in data set [2], the cellular uptake entry is reported as “higher”. The lipophilicity entry in data set [3] is “more lipophilic”.

For `FC(F)(F)Oc1ccc2[nH]c(-c3ccc(OCCOCCOc4ccc(-c5nc6cc(OC(F)(F)F)ccc6[nH]5)nc4)cn3)nc2c1` [AI-10-49], the “inhibition of CBFβ-SMMHC binding to the Runt domain of RUNX proteins” value in data set [4] is “potent and CBFβ-SMMHC specific”. Besides, in data set [5], the “effect on CBFβ function” value is on record as “minimal effect”. The cell death entry in data set [6] is recorded as “induced cell death”. Also, in data set [1], the “white blood cell count” value was “reduced” and the “Lin-Sca1-c-Kit+ cell population (number of cells)” value is reported as “modest effect”.

As to `COc1cccc2c1C(=O)c1c(O)c3c(c(O)c1C2=O)C[C@@](O)(C(=O)CO)C[C@@H]3O[C@H]1C[C@H](N)[C@@H](O)[C@H](C)O1` [Epirubicin], in data set [7], the half-life entry is “longer” and the volume of distribution entry is given as “increased”.

Consider `COc1ccc2[nH]c(-c3ccccn3)nc2c1` [AI-4-57, 5-methoxy-2-(pyridin-2-yl)-1H-benzo[d]imidazole], for which, in data set [4], the “binding to the CBFβ-SMMHC fusion protein” value is on record as “binds to the CBFβ portion of the CBFβ-SMMHC fusion protein” and the “inhibition of CBFβ-SMMHC binding to the Runt domain of RUNX proteins” value is on record as “inhibits its binding to the Runt domain of RUNX proteins”.

Regarding `FC(F)(F)Oc1ccc2[nH]c(-c3ccccn3)nc2c1` [A-10-47, 2-(pyridin-2-yl)-5-(trifluoromethoxy)-1H-benzo[d]imidazole], the metabolic stability entry in data set [8] is given as “enhanced metabolic stability”.
